{"source": "patent US7001746B1", "about": "“Methods and compositions for the differentiation of human preadipocytes into adipocytes” (Artecel Sciences, Inc., priority 1999, dated 2006)", "key": {"human preadipocytes [1]": {"tested_on": "human preadipocytes", "assay": "Differentiation of human preadipocytes to adipocytes, Oil Red O staining (Example 2)", "assay_type": "cell-based", "conditions": "Adipocyte, in differentiation medium, read-out: concentration that allows for half maximal stimulation of differentiation", "description": "Preadipocytes from the stroma-vascular fraction were resuspended in preadipocyte medium (DME-Ham's F-10, 1:1 (v/v), 10% FBS, and penicillin-streptomycin-fungizone) and plated at 25,000 cells/well in each of the wells of a 96 well plate (150 μl/well). The cells were then placed in a 37° C. 5% CO2 incubator and allowed to settle overnight. The following day, all of the medium was removed and replaced with 150 μl differentiation medium (Dulbecco's Modified Eagle Medium/Ham's F-10 Nutrient Broth (1:1, vol/vol), 15 mM HEPES buffer, pH 7.4, 33 μM biotin, 17 μM pantothenate, 0.2 mM isobutylmethylxanthine, 100 nM insulin, 1 μM dexamethasone, 1 μM BRL 49653 (diluted into medium from a 100× DMSO stock solution), 10% (vol/vol) fetal bovine serum, 60 U/l streptomycin, 60 U/l penicillin and 25 μg/l Fungizone). The cells were maintained on differentiation medium for 3 days. Additional differentiation medium was added as necessary to maintain the proper volume.\n120 μl of the medium was removed, taking care to leave a 30 μl layer over the cell surface to prevent the maturing adipocytes from lifting off of the plate surface due to the surface tension created by removal of all the fluid. […]\n(§1) Isopropanol (100 μl/well) was then added and the plate was incubated at room temperature for 10 minutes. […] The optical density was measured at 500 nm. […]"}, "human preadipocytes [2]": {"tested_on": "human preadipocytes", "conditions": "1 μM BRL49653", "description": "The following procedure was used to determine the amount of lipid that had accumulated in the adipocytes. 120 μl/well of medium was removed from each well of the 96-well plates. Care was taken to prevent drying of the wells. 100 μl/well fixer solution (7% formaldehyde in PBS) was added and the plate was incubated at room temperature for at lease 2 hours. Oil Red O working solution was prepared by adding 4 ml distilled water to 6 ml Oil Red O stock solution (1% Oil Red O in isopropanol). The working solution was incubated for 20 minutes at room temperature and then filtered through Nalgene 0.8 μm filter wear. All of the fixer was removed by aspiration until wells were completely dry.\nThe cells were then incubated with 40 μl/well Oil Red O working solution at room temperature for 10-15 minutes. Care was taken not to touch the sides of the wells in order to prevent high background due to dye stuck on the wall of the well. The plate was covered during incubation to prevent evaporation. Following this incubation, all of the Oil Red O solution was removed and the cells were washed four times with 200 μl/well distilled water. […]\nas §1"}, "[3]": {"tested_on": "differentiated adipocytes", "assay": "Lipolysis in differentiated human adipocytes, glycerol release (Example 5)", "assay_type": "cell-based", "conditions": "increasing concentrations, 4 hours, adipocytes from five patients; FIG. 6", "method": "Preadipocytes from 5 individual patients were isolated and differentiated into adipocytes as described herein. A 96-well plate of adipocytes differentiated by the method in Example 1 was prepared. After 21 days from plating, the cells were washed in Krebs-Ringer buffer and treated with increasing concentrations of isoproterenol. The positive and negative controls (0.5 μM isoproterenol in KRB and KRB alone, respectively) were added in duplicate. The plates were then incubated at 37° C. for four hours.\nWhen lipolytic agents stimulate adipocytes, triglycerides are converted to glycerol and fatty acids. Lipolytic rate was measured in this example by measuring the glycerol released in the medium. At the end of the incubation time, conditioned medium (100 μl) from each well was transferred into a new plate. Glycerol standards (1 mM, 0.5 mM, 0.25 mM, 0.1 mM, 0.05 mM, 0.025 mM, 0 mM) were included.\nGlycerol assay reagent (100 μl; Sigma glycerol assay kit) was added to each well. The solutions were mixed well and incubated at room temperature for 15 minutes and then the optical density of each well was read at 540 nm."}}, "data": [{"compound": "CN(CCOc1ccc(CC2SC(=O)NC2=O)cc1)c1ccccn1", "note": "(stereo not drawn) [BRL49653]", "values": [{"measurement": "EC50", "setting": "human preadipocytes [1]", "value": 50, "unit": "nM"}, {"measurement": "differentiation", "setting": "human preadipocytes [2]", "value": 100, "unit": "%"}]}, {"compound": "CC(C)NCC(O)c1ccc(O)c(O)c1", "note": "(stereo not drawn) [isoproterenol]", "values": [{"measurement": "stimulation of lipolysis (glycerol release)", "setting": "[3]", "value": "dose-dependently stimulate lipolysis"}]}]}
